Test results as given in patent publication US11613558B2, “Peptides and pharmaceutical compositions for treating eye diseases” (Yuyu Pharma, Inc., priority 2018, dated 2023).
Structures can show the parent of a compound that is named as a salt. Numbered stars: 1 amine (or outer) side, 2 acyl side, 3 side chain; on linkers, the order of the positions; unused ones are H or OH. Square brackets hold non-standard residues; d marks the D form. Peptide text beside a SMILES is read from it. ξ: configuration not given here. X2 = C[C@@H]1CC[C@@H](C(=O)[*:2])N1[*:1]; d(cisHyp) = O=C(O)[C@H]1C[C@@H](O)CN1; Hyp = O=C(O)[C@@H]1C[C@@H](O)CN1; dHyp = O=C(O)[C@H]1C[C@H](O)CN1; Ile(3ξ) = CCC(C)[C@H](N)C(=O)O

Experiments:
[1] = system: human primary corneal epithelial cells; assay: Cell growth rate of human primary corneal epithelial cells (CellTiter-Glo); type: cell-based; settings: 48 hours and 72 hours
Procedure: In order to confirm whether the YDE derivatives could recover corneal damage, the cellular growth rate of human primary corneal epithelial cells was checked.
Specifically, primary corneal epithelial cells (ATCC, ATCC PCS-700-010) were seeded on a 96-well culture plate (Perkin Elmer, 6005680) containing the Corneal Epithelial Cell Basal Medium (ATCC, ATCC PCS-700-030) in the Corneal Epithelial Cell Growth Kit (ATCC, ATCC PCS-700-040) in an amount of 5×10^3 cells per well, which was then cultured for 24 hours under the conditions of 37° C. and 5% CO2.
YDE-001 to YDE-075 were each dissolved in 100% DMSO (Sigma, D2660) to a concentration of 10 mM, which was then diluted with 100% DMSO to a concentration of the compound of 6, 1.9, 0.6, 0.2, 0.06, 0.02, 0.006, and 0.002 mM. 20 μl of the diluted YDE derivative was added to a 96-well microplate (Greiner Bio-One, 651201) containing 380 μl of the Corneal Epithelial Cell Basal Medium such that the concentration of DMSO was diluted to 5%.
After 24 hours, 20 μl of each of the YDE derivatives diluted in the 96-well microplate was added to the 96-well culture plate containing the cells. As a control group, hEGF (Sigma, E9644) was treated at the same concentration as the YDE derivatives. The cells treated with the YDE-derivatives or hEGF were cultured for 48 hours and 72 hours under the conditions of 37° C. and 5% CO2 (FIGS. 18 to 25).
The cultured cells were treated with the CellTiter-Glo luminescent reagent (Promega, G7573) according to the manufacturer's instructions and reacted for 30 minutes at room temperature. Thereafter, the fluorescent signal (or luminescence signal) was checked using an Envision 2014 Multi-label plate reader. The measured values were normalized using a vehicle control (100% proliferation cell).

[2] = system: cornea of rats with dry eye syndrome (ELGE); assay: Corneal permeability of fluorescent dye (corneal damage) in ELGE rats with dry eye syndrome; type: in vivo, rat; settings: 5 μl/eye twice daily, day 14
In short: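 Dry eye induced in male Sprague-Dawley rats by extraorbital lacrimal gland excision; from day 7, 3 mg/ml compound in saline given at 5 μl/eye twice daily. After 14 doses, rats anaesthetized (Zolethyl 25 mg/kg ip), 1% fluorescein applied 1 h, and corneal staining read 12-24 h later by slit-lamp under blue light.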

[3] = Stability in aqueous solution under long-term storage conditions (related substances); type: physicochemical; settings: 25° C., 75% RH
In short: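 Test substances dissolved in water at 1 mg/ml, sealed in glass vials and held at 25° C./75% RH. Related substances measured at 1, 2, 4, 8 and 12 weeks.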

[4] = system: rats with dry eye syndrome (extraorbital lacrimal gland excision, ELGE); assay: Amount of tear secretion (Schirmer test, cobalt chloride paper) in ELGE rats with dry eye syndrome; type: in vivo, rat; settings: for Tear Volumes, Day 7 / Tear Volumes, Day 14: ELGE rats, 3 mg/ml, 5 μl/eye twice daily; for Tear Volumes, Day 7: day 7 of administration; for Tear Volumes, Day 14: day 14 of administration
In short: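 Dry eye induced in male Sprague-Dawley rats by extraorbital lacrimal gland excision; sham-operated controls. From 7 days post-surgery, 3 mg/ml test compounds in saline given topically at 5 μl/eye twice daily for 14 days. Tear secretion measured on days 7 and 14 as wetted length of cobalt chloride paper held 60 s in the lateral canthus.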

[5] = Table 6, study of YDE-001 to YDE-028, 3 mg/ml
[6] = Table 4, study of YDE-001 to YDE-028
[7] = Table 5, study of YDE-029 to YDE-043

Amount of related substances (after 12 weeks) [3] [%] | SMILES | Cell proliferation rate (in words) [1] | Permeability of fluorescent dye [2, 5] [%] | Tear Volumes, Day 7 [4, 6] [mm^3] | Tear Volumes, Day 14 [4, 6] [mm^3] | Permeability of fluorescent dye ([2]; Table 7, study of YDE-029 to YDE-043, 3 mg/ml) [%] | Tear Volumes, Day 7 [4, 7] [mm^3] | Tear Volumes, Day 14 [4, 7] [mm^3] | Change in amount of tear secretion as compared with the ELGE control group ([4]; study of YDE-001 to YDE-028, 3% solution as printed, after administration for 14 days)
– | CC(C)C[C@H](NC(=O)CNC(=O)[C@H](CC(C)C)NC(=O)[C@H](CCC(N)=O)NC(=O)CNC(=O)[C@@H]1CC[C@@H](C)N1)C(=O)N[C@@H](C)C(=O)NCC(=O)N1CCC[C@H]1C(=O)N[C@@H](CCCCN)C(=O)O [YDE-045] (H-[X2]GQLGLAGPK-OH) | high cell proliferation rate | – | – | – | – | – | – | –
3.83 | CC(C)C[C@H](NC(=O)CNC(=O)[C@H](CC(C)C)NC(=O)[C@H](CCC(N)=O)NC(=O)CNC(=O)[C@@H]1C[C@@H](O)CN1)C(=O)N[C@@H](C)C(=O)NCC(=O)N1CCC[C@H]1C(=O)N[C@@H](CCCCN)C(=O)O [YDE-011, H-Hyp-Gly-Gln-Leu-Gly-Leu-Ala-Gly-Pro-Lys-OH AcOH salt] (H-[Hyp]GQLGLAGPK-OH) | high cell proliferation rate | 18.11 ± 11.61 | 4.22 ± 1.45 | 6.16 ± 2.16 | – | – | – | –
– | CC(C)C[C@@H](NC(=O)CNC(=O)[C@@H](CC(C)C)NC(=O)[C@@H](CCC(N)=O)NC(=O)CNC(=O)[C@H]1C[C@@H](O)CN1)C(=O)N[C@H](C)C(=O)NCC(=O)N1CCC[C@@H]1C(=O)N[C@H](CCCCN)C(=O)O [YDE-060] (H-[d(cisHyp)]G[dQ][dL]G[dL][dA]G[dP][dK]-OH) | high cell proliferation rate | – | – | – | – | – | – | –
– | CC(C)C[C@H](NC(=O)CNC(=O)[C@H](CC(C)C)NC(=O)[C@H](CCC(N)=O)NC(=O)CNC(=O)[C@H]1C[C@H](O)CN1)C(=O)N[C@@H](C)C(=O)NCC(=O)N1CCC[C@H]1C(=O)N[C@@H](CCCCN)C(=O)O [YDE-057] (H-[dHyp]GQLGLAGPK-OH) | high cell proliferation rate | – | – | – | – | – | – | –
2.97 | CC(C)C[C@H](NC(=O)CNC(=O)[C@H](CCCCN)NC(=O)[C@H](CCC(N)=O)NC(=O)CNC(=O)[C@@H]1C[C@@H](O)CN1)C(=O)N[C@@H](C)C(=O)NCC(=O)N1CCC[C@H]1C(=O)N[C@@H](CCCCN)C(=O)O [YDE-005] (H-[Hyp]GQKGLAGPK-OH) | – | 37.98 ± 11.53 | 3.85 ± 0.93 | 5.08 ± 1.91 | – | – | – | –
34.82 | CC(C)C[C@H](NC(=O)CNC(=O)[C@H](CC(C)C)NC(=O)[C@H](CCC(N)=O)NC(=O)CNC(=O)[C@@H]1C[C@@H](O)CN1)C(=O)N[C@@H](C)C(=O)NCC(=O)N1CCC[C@H]1C(=O)N[C@@H](CCC(=O)O)C(=O)O [YDE-031] (H-[Hyp]GQLGLAGPE-OH) | – | – | – | – | 33.35 ± 11.01 | 5.63 ± 1.97 | 5.91 ± 0.85 | –
30.66 | CC(C)C[C@H](NC(=O)[C@H](CO)NC(=O)[C@H](CC(=O)O)NC(=O)[C@H](CCC(N)=O)NC(=O)CNC(=O)[C@@H]1C[C@@H](O)CN1)C(=O)N[C@@H](C)C(=O)NCC(=O)N1CCC[C@H]1C(=O)N[C@@H](CCCCN)C(=O)O [YDE-023] (H-[Hyp]GQDSLAGPK-OH) | – | 26.51 ± 8.18 | 5.32 ± 2.30 | 5.78 ± 2.23 | – | – | – | –
1.15 | CNC(=O)C[C@H](NC(=O)[C@H](CCC(N)=O)NC(=O)CNC(=O)[C@@H]1C[C@@H](O)CN1)C(=O)NCC(=O)N[C@@H](CC(C)C)C(=O)N[C@@H](C)C(=O)NCC(=O)N1CCC[C@H]1C(=O)N[C@@H](CCCCN)C(=O)O [YDE-028] (H-[Hyp]GQD(NHMe)GLAGPK-OH) | – | 41.17 ± 10.25 | 4.04 ± 0.99 | 4.73 ± 1.18 | – | – | – | did not show any significant changes
11.33 | CCC(C)[C@H](NC(=O)[C@H](CC(=O)O)NC(=O)[C@H](CCC(N)=O)NC(=O)CNC(=O)[C@@H]1C[C@@H](O)CN1)C(=O)N[C@@H](CC(C)C)C(=O)N[C@@H](C)C(=O)NCC(=O)N1CCC[C@H]1C(=O)N[C@@H](CCCCN)C(=O)O (stereo partly drawn) [YDE-016] (H-[Hyp]GQD[Ile(3ξ)]LAGPK-OH) | – | 24.57 ± 10.34 | 4.59 ± 1.13 | 5.98 ± 2.27 | – | – | – | –
2.11 | CC(C)C[C@H](NC(=O)CNC(=O)[C@H](Cc1cnc[nH]1)NC(=O)[C@H](CCC(N)=O)NC(=O)CNC(=O)[C@@H]1C[C@@H](O)CN1)C(=O)N[C@@H](C)C(=O)NCC(=O)N1CCC[C@H]1C(=O)N[C@@H](CCCCN)C(=O)O [YDE-004] (H-[Hyp]GQHGLAGPK-OH) | – | 35.05 ± 11.74 | 3.42 ± 1.06 | 5.19 ± 1.84 | – | – | – | –
